Measurements published in US11771673B2, “On site generated performic acid compositions for teat treatment” (ECOLAB USA INC., priority 2018, dated 2023).

Experiment: Accelerated stability of hydrogen peroxide premixes with different self-indicators under 40° C.
Type: physicochemical
Conditions: approximately 13 weeks
Experimental: The hydrogen peroxide premixes were prepared according to Table 10 with differing types of FD&C dyes. The compositions were stored in a 40° C. oven for approximately 13 weeks. Their stability, as evaluated by the presence of hydrogen peroxide, was compared and is depicted in Table 11.

Compound: O=S(=O)([O-])c1ccc(N=Nc2c(O)ccc3cc(S(=O)(=O)[O-])ccc23)cc1.[Na+].[Na+] [FD&C yellow 6]
- stability of dye in hydrogen peroxide premix: significantly more stable than FD&C yellow 5
